Laboratory results: patent US3997530A, “Substituted enaminoketones” (American Cyanamid Company, priority 1976, dated 1976)
Several values for one entry are separate records, joined by “and”; a condition that tells them apart may be missing. Equal entries are not always repeated.

Key:
[1] = "writhing syndrome" test for analgesic activity (phenyl-p-quinone); format: in vivo, male Swiss albino mice; settings: 100 mg./kg. oral, 30 minutes before phenyl-p-quinone; 3 minute count commencing 15 minutes after; control approximately 30 per pair; active if 18 or less
Text: The substituted enaminoketones of the present invention are active analgesics when measured by the "writhing syndrome" test for analgesic activity as described by Siegmund, et al., Proc. Soc. Exp. Bio. and Med., 95, 729 (1957), with modifications. This method is based upon the reduction of the number of writhes following the intraperitoneal injection of one mg./kg. of body weight of phenyl-p-quinone in male Swiss albino mice weighing 18-25 gm. The syndrome is characterized by intermittent contractions of the abdomen, twisting and turning of the trunk, and extension of the hind legs beginning 3 to 5 minutes after injection of the phenyl-p-quinone. The test compounds are administered orally at the indicated dose to groups of 2 mice each, 30 minutes before injection of the phenyl-p-quinone. […] A compound is considered active if it reduces the total number of writhes in 2 test mice from a control value of approximately 30 pair to a value of 18 or less. Table I summarized the results of this test on representative compounds of this invention.

[2] = Water solubility of salts; format: physicochemical
[3] = Walking gait test in rats with yeast-inflamed paw (modified Atkinson and Cowan); format: in vivo, male, albino Wistar strain rats; settings: oral by gavage, dose producing 50% reversal of the pre-dose gait score, one and/or two hours post-drug
Protocol: Atkinson and A. Cowan, J. Pharm. Pharmac, 26, 727 (1974).
In this test male, albino Wistar strain rats from Royalhart farms, weighing 120-150 g. are deprived of food for about 20 hours. A 40% suspension of brewers' yeast in physiological saline is injected, at a concentration of 0.25 ml/rat into the plantar surface of the left hind paw of each rat. 3 hours later, at which time an inflammation of the injected paw has developed, a pre-drug assessment of walking gait is made for each rat according to the following scoring system:
0 = Normal gait in the presence of a severely inflammed paw. There is continuous use of the foot pad.
0.5 = As above with intermittent mild limping.
1.0 = Constant limping, but continuous use of the foot pad.
1.5 = Limping with occasional three-legged gait (paw kept off walking surface) or intermittent use of digits in combination with foot pad.
2.0 = Continuous three-legged gait and/or only the tips of the digits touch the walking surface. There is no use of foot pad.
Compounds, in a suitable vehicle, are administered orally by gavage in a volume of 0.5 ml./100 g. of body weight. One and/or two hours later a post-drug assessment of walking gait is made as described above. The criterion of an analgesic response for each rat is a 50% reversal of the abnormal gait score (post-drug) from the pre-drug score. […]

[4] = Brewer's Yeast Pressure Pain Test (modified Randall and Selitto); format: in vivo, rats
Protocol: To determine analgesic activity, a modification of the method of Randall and Selitto [Arch. int. Pharmacodyn., 111, 409 (1957)] is used. This test measures the pain threshold of rats whose paws are made sensitive to pressure by the injection of a 20% aqueous suspension (0.1 ml.) of brewers' yeast into the plantar surface of the left hind paw. Constantly increasing force (16 grams/second) is applied to the swollen paw using an Analgesy Meter, Ugo Basile. The pressure is cut off at 250 grams of force when there is no response (sudden struggle or vocalization). Control rats treated with the starch vehicle response to a pressure or force of about 30 grams. Pressure-pain thresholds are always recorded 2 hours after brewers' yeast. Analgesic agents are administered at the same time as the yeast, at a dose of 200 mg./kg. orally. Ratios of treated (T)/control (C) reaction thresholds are calculated as estimates of analgesic efficacy (degree of analgesia attainable). Potency is regarded as the dose necessary to produce a given level of analgesia (i.e. 100% elevation of pain threshold is T/C=2.0).

[5] = Antipyretic activity, brewers' yeast-induced hyperthermia (modified Teotino et al.); format: in vivo, rats
Protocol: The compounds of this invention also show antipyretic activity by their ability to reduce a hyperthermic response in warm-blooded animals, e.g., rats, induced by the subcutaneous injection of a suspension of brewers' yeast. This is a modification of the method described by Teotino, et al., J. Med. Chem. 6, 248 (1963). A 40% suspension of brewer's yeast in distilled water is administered to groups of five to ten rats subcutaneously (1.0 ml./100 g. of body weight). Eighteen hours later, rectal temperatures are recorded and compounds, control vehicle (2% starch suspension) or aspirin is administered. Rectal temperatures are recorded 4 hours later and the results are compared with the starch treated controls and with aspirin, a reference antipyretic agent.

In the case of NC(=CC(=O)c1cnccn1)C1CC1 [1-amino-1-cyclopropyl-3-(2-pyrazinyl)-1-propen-3-one], the “No. of writhes per pair” value [1] is reported as 3.8.
For c1cncc(-c2cc(C3CC3)no2)c1 [3-(3-cyclopropyl-5-isoxazolyl)pyridine], the water solubility ([2]; sulfate salt) was “water soluble”.
In the case of c1cncc(-c2cc(C3CC3)on2)c1 [3-(5-cyclopropyl-3-isoxazolyl)pyridine], the solubility ([2]; acetate salt) is reported as “slightly soluble”.
For NC(=CC(=O)c1cccnc1)C1CC1 [3-amino-3-cyclopropyl-1-(3-pyridyl)-2-propen-1-one], the ED50 ([3]; Rattus norvegicus, po, 2 h, read-out: ED50) was 27 mg/kg and the ED50 [3] was 40 mg/kg and 26 mg/kg.
In the case of NC(=CC(=O)c1ccncc1)C1CC1 [3-amino-3-cyclopropyl-1-(4-pyridyl)-2-propen-1-one], the “No. of writhes per pair” value [1] is reported as 9.4, the “Ratio (Treated/Control) Measured at 2 Hours Following 200 mg./kg. Oral Dose” value ([4]; 200 mg./kg. orally, 2 hours after brewers' yeast, ratio of reaction thresholds T/C) is reported as 1.45 and 1.39 and the ED50 ([4]; Rattus norvegicus, 2 h, oral, Brewer's Yeast Pressure Pain Test) is reported as 25 mg/kg. For the same compound, the “effect on body temperature of normal rats” value ([5]; 200 mg./kg., normal rats) was “not effecting the body temperature of normal rats” and the “lowering the yeast-elevated body temperature of rats” value ([5]; 200 mg./kg., rectal temperature 4 hours later, yeast-treated rats) was “effective in lowering the yeast-elevated body temperature of rats”.
In the case of c1cc(-c2cc(C3CC3)no2)ccn1 [4-(3-cyclopropyl-5-isoxazolyl)pyridine], the water solubility ([2]; phosphate salt) is reported as “water soluble”.
In the case of c1cc(-c2cc(C3CC3)on2)ccn1 [4-(5-cyclopropyl-3-isoxazolyl)pyridine], the water solubility ([2]; citrate salt) is reported as “slightly water soluble”.
With CC(=O)Oc1ccccc1C(=O)O [Aspirin, reference compound] the “effect on temperature of normal rats” value ([5]; aspirin reference, dose not given, normal rats) was “not effecting the temperature of normal rats” and the lowering yeast-elevated temperatures ([5]; aspirin reference, dose not given, yeast-treated rats) was “similarly effective in lowering yeast-elevated temperatures”.
